Test results from ChEMBL document CHEMBL1201862, “PubChem BioAssay data set” (2004).
Values belong to the compound of their own block, whether it stands above or below them. Calls of active or inactive are those of the source.

Assays:
[1] = target: Dual specificity protein kinase CLK2 (Homo sapiens, UniProt P49760); format: functional
[2] = target: Dual specificity mitogen-activated protein kinase kinase 1 (Homo sapiens, UniProt Q02750); assay: Navigating the Kinome. Panel member name: MAP2K1; format: functional
[3] = target: 5'-AMP-activated protein kinase catalytic subunit alpha-1 (Homo sapiens, UniProt Q13131); format: functional
[4] = target: Casein kinase I isoform alpha (Homo sapiens, UniProt P48729); format: functional
Sequence of Casein kinase I isoform alpha (P48729 whole entry, canonical isoform): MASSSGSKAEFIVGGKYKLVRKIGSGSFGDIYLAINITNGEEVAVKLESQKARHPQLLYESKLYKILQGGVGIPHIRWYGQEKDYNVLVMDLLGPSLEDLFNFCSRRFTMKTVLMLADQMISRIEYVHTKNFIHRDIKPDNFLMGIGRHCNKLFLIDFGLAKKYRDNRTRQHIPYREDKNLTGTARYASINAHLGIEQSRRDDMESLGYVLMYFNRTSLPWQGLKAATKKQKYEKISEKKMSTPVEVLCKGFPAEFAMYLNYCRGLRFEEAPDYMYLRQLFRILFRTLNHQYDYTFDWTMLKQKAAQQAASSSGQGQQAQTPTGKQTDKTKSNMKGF

[5] = target: Activated CDC42 kinase 1 (Homo sapiens, UniProt Q07912); assay: Navigating the Kinome. Panel member name: ACK1; format: functional
[6] = target: Vascular endothelial growth factor receptor 2 (Homo sapiens, UniProt P35968); format: functional
Sequence of Vascular endothelial growth factor receptor 2 (P35968 whole entry): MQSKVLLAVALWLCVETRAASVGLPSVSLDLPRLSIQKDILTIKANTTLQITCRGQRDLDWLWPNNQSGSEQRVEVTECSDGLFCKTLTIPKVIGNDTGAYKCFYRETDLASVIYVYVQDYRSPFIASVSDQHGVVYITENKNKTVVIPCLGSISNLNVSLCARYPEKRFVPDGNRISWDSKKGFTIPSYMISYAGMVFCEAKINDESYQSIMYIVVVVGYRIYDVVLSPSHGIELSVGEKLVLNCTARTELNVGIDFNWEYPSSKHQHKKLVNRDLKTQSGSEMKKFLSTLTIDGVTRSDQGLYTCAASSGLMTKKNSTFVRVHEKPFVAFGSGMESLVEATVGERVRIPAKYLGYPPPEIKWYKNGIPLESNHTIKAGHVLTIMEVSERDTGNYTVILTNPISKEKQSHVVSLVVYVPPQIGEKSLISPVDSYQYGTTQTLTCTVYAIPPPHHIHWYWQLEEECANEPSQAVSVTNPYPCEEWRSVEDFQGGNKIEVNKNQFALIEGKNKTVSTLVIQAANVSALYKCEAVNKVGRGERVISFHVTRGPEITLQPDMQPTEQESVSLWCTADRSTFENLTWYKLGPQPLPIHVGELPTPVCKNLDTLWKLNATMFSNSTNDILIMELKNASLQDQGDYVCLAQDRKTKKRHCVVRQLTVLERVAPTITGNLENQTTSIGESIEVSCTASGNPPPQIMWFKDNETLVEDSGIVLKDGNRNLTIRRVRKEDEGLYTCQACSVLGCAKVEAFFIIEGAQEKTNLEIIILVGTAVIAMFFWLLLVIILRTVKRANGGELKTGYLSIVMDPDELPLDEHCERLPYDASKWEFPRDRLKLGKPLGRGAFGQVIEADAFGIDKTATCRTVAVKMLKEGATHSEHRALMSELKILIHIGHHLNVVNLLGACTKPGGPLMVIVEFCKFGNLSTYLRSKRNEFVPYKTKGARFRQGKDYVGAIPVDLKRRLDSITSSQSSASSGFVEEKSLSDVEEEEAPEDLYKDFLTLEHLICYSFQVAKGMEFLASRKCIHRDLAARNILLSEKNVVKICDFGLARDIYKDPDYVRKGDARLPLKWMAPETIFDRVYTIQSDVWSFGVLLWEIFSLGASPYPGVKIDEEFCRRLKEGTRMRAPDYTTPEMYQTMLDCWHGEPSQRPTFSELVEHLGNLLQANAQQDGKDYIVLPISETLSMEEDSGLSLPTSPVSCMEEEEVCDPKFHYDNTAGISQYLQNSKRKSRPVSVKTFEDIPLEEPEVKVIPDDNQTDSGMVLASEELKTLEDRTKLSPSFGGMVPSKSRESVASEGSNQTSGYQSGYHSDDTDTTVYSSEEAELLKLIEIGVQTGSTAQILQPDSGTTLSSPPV

[7] = target: Cyclin-dependent kinase 5 (Homo sapiens, UniProt Q00535); format: functional;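 also: CDK5 measured as one member of a kinase profiling panel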
Sequence of Cyclin-dependent kinase 5 (Q00535 whole entry): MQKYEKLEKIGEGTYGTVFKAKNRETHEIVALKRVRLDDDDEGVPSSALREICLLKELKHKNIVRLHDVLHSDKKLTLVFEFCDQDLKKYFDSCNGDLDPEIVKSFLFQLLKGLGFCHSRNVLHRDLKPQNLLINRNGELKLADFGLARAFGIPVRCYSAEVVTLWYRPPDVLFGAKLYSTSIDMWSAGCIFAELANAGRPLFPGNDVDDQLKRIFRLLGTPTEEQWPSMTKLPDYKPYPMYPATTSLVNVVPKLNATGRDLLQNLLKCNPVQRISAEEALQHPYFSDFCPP

[8] = target: T1, cAMP-dependent protein kinase catalytic subunit PRKX (Homo sapiens, UniProt P51817); format: functional
T1 sequence (P51817 whole entry): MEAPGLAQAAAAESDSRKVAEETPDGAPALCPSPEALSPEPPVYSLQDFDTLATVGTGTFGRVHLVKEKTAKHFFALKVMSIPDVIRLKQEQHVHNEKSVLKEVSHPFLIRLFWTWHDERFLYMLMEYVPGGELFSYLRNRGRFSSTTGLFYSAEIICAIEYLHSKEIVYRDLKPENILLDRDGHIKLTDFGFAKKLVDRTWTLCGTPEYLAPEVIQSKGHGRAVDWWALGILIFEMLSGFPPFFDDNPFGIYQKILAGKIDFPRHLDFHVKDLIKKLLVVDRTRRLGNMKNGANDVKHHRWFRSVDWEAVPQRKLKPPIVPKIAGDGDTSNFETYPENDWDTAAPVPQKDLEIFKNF

[9] = target: Focal adhesion kinase 1 (Homo sapiens, UniProt Q05397); format: functional;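 also: measured as one member of a kinome panel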
[10] = target: Platelet-derived growth factor receptor alpha (Homo sapiens, UniProt P16234); assay: Navigating the Kinome. Panel member name: PDGFRA; format: functional
[11] = target: BDNF/NT-3 growth factors receptor (Homo sapiens, UniProt Q16620); format: functional;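 also: NTRK2 measured as one member of a broad kinome-wide kinase profiling panel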
Sequence of BDNF/NT-3 growth factors receptor (Q16620 whole entry): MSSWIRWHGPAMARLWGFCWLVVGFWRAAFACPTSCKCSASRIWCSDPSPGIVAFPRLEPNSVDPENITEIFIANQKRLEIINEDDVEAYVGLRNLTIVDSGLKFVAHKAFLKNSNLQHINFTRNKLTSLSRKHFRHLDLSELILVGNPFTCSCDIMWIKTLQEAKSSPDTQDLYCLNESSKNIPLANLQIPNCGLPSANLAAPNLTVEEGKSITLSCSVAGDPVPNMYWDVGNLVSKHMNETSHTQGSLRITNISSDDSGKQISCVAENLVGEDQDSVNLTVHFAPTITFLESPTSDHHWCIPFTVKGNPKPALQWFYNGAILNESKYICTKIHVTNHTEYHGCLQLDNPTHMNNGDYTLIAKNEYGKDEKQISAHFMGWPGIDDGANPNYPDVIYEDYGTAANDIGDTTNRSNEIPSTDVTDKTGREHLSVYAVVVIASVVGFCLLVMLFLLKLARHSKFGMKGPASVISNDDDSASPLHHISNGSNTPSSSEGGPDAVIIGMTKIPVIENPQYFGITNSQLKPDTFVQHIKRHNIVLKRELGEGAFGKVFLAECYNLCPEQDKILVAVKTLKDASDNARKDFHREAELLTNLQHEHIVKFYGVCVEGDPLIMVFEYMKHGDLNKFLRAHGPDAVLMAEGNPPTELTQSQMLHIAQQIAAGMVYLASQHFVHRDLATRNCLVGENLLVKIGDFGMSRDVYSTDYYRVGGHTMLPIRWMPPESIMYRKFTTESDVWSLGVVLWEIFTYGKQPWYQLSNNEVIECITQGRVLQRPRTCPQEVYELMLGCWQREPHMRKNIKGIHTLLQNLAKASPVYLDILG

[12] = target: cAMP-dependent protein kinase catalytic subunit alpha (Homo sapiens, UniProt P17612); format: functional
[13] = target: Macrophage-stimulating protein receptor (Homo sapiens, UniProt Q04912); assay: Navigating the Kinome. Panel member name: MST1R; format: functional
Sequence of Macrophage-stimulating protein receptor (Q04912 25-304 limits assumed): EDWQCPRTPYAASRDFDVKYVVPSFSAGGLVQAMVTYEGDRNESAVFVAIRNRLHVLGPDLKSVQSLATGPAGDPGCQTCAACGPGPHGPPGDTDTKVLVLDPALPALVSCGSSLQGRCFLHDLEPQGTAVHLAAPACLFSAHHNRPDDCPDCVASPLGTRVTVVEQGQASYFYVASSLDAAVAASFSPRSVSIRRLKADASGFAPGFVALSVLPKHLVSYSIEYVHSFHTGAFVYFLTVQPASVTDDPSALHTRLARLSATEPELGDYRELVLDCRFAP
Sequence of Macrophage-stimulating protein receptor (Q04912 310-1400 limits assumed): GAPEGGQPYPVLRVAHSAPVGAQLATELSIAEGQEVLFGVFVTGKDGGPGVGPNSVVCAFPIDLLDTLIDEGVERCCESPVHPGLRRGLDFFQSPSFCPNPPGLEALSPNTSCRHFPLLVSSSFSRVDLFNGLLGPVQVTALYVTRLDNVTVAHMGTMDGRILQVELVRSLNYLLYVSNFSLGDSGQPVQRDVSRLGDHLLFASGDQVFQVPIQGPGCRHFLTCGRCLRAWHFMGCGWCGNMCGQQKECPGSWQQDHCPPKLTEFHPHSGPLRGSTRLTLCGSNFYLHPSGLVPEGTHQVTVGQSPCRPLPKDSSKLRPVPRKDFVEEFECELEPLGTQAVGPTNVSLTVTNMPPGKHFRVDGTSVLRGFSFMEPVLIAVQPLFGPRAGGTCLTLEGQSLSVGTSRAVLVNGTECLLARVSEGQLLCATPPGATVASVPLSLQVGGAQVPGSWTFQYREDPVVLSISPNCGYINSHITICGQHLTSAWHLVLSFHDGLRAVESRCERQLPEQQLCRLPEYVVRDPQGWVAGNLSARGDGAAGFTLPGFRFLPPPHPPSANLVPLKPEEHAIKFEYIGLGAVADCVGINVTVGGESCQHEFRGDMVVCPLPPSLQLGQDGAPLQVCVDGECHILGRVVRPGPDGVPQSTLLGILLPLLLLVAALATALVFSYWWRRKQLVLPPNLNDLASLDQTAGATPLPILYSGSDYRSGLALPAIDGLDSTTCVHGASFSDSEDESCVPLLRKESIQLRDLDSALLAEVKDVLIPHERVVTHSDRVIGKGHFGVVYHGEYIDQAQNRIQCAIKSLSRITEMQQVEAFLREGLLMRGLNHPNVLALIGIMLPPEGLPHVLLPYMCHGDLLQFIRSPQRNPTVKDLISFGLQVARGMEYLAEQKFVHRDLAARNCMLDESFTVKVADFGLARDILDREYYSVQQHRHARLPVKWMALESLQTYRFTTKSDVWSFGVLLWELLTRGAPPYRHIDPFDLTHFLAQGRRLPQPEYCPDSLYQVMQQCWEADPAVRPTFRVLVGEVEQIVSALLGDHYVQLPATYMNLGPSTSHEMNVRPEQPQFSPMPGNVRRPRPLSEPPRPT

[14] = target: Dual specificity mitogen-activated protein kinase kinase 2 (Homo sapiens, UniProt P36507); assay: Navigating the Kinome. Panel member name: MAP2K2; format: functional
[15] = target: Dual specificity tyrosine-phosphorylation-regulated kinase 1A (Homo sapiens, UniProt Q13627); format: functional;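 also: measured against DYRK1A as one member of a broad kinome profiling panel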
[16] = target: Leukocyte tyrosine kinase receptor (Homo sapiens, UniProt P29376); assay: Navigating the Kinome. Panel member name: LTK; format: functional
[17] = target: Potassium voltage-gated channel subfamily KQT member 2 (Rattus norvegicus, UniProt O88943); assay: KCNQ2 potassium channel inhibitors, dose response, cell-based, automated electrophysiology, set II, rat KCNQ2 (AID 588637); format: functional
[18] = target: Melanocortin receptor 4 (Homo sapiens, UniProt P32245); assay: MC4R antagonist potency on cAMP, dose response, cell-based, TR-FRET, biased antagonists (AID 602298); format: functional;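 also: antagonist potency against agonist-stimulated cAMP production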
Sequence of Melanocortin receptor 4 (P32245 whole entry): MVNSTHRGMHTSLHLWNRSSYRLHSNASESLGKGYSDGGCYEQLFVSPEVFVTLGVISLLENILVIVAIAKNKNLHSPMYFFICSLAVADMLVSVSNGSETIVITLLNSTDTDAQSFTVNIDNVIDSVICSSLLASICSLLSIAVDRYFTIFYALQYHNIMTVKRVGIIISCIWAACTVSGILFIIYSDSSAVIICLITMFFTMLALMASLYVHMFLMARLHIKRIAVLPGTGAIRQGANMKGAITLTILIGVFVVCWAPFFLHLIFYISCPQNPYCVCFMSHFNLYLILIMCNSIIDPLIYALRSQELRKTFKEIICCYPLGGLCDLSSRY

[19] = nonselective inhibitors of cellular cAMP signaling, dose response, counter-screen for MC4R biased antagonist project, cell-based, TR-FRET cAMP detection (AID 602305); format: functional;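 also: U2OS cells stimulated with forskolin near its EC80 as the cAMP inducer; potency is for inhibition of forskolin-stimulated cAMP signaling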
[20] = Counterscreen for IDE inhibitors: Luminescence-based cell-based high throughput dose response assay to identify compounds that are cytotoxic to HEK cells. [Related pubchem assays: 434962 (Primary screen (IDE inhibitors in singlicate)), 449730 (Counterscreen (Cytotoxicity in triplicate)), 435028 (Confirmation (IDE inhibitors in triplicate)) …; format: functional; conditions: HEK293
[21] = target: Large T antigen (Simian virus 40, UniProt P03070); format: functional, Betapolyomavirus macacae;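 also: Confirmatory-stage PubChem screen for compounds that inhibit SV40 T antigen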
[22] = target: T2, Insulin-degrading enzyme (Homo sapiens, UniProt P14735); assay: Dose Response: Fluorescence polarization-based cell-based high throughput dose response assay for inhibitors of insulin-degrading enzyme (IDE). [Related pubchem assays: 434962 (Primary screen (IDE inhibitors in singlicate)), 449730 (Counterscreen (Cytotoxicity in triplicate)), 435028 (Confirmation (IDE inhibitors in triplicate)), 434984 (Summary …; format: functional
T2 sequence (P14735 whole entry): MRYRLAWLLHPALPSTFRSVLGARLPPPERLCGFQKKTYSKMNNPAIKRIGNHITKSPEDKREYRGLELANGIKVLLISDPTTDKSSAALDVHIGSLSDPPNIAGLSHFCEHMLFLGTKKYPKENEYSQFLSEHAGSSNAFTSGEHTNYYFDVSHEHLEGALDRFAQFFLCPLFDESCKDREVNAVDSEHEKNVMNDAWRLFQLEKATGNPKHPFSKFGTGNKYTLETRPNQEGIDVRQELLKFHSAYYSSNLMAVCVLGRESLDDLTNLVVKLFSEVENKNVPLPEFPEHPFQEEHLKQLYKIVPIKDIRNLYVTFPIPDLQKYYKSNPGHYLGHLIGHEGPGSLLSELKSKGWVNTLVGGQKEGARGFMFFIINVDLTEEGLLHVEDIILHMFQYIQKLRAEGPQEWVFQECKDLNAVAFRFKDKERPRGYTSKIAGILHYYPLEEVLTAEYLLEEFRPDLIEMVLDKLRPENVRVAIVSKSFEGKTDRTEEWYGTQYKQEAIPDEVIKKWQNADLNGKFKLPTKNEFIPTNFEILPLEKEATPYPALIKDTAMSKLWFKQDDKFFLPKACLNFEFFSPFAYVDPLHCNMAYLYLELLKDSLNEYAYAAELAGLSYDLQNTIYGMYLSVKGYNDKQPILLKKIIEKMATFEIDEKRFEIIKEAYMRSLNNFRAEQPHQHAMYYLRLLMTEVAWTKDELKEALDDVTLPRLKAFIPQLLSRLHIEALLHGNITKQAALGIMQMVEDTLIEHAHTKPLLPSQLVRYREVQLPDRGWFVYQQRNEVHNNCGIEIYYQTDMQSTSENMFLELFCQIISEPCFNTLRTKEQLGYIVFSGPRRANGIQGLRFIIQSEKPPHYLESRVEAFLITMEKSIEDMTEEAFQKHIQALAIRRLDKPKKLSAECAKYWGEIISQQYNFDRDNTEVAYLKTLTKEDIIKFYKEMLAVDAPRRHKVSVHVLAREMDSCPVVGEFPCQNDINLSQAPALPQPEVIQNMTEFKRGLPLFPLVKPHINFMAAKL

[23] = target: Glucose-6-phosphate 1-dehydrogenase (Homo sapiens, UniProt P11413); assay: human G6PD enzyme inhibitors, dose response, selectivity assay for P. falciparum G6PD inhibitor project, biochemical, fluorescence (AID 504792); format: functional
[24] = target: T3, Mitochondrial peptide methionine sulfoxide reductase (Bos taurus, UniProt P54149); assay: Absorbance-based biochemical high throughput dose response assay for activators of Methionine sulfoxide reductase A (MsrA).; format: functional
T3 sequence (P54149 whole entry): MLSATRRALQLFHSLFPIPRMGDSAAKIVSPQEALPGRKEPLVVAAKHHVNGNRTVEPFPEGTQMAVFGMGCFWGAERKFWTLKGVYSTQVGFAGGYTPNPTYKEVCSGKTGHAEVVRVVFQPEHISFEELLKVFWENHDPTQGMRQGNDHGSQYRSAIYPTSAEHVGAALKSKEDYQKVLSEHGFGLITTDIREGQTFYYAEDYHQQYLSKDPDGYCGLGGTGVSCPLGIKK

[25] = target: Protein kinase C theta type (Homo sapiens, UniProt Q04759); assay: Navigating the Kinome. Panel member name: PRKCQ; format: functional
[26] = target: T4, Tyrosine-protein kinase receptor TYRO3 (Homo sapiens, UniProt Q06418); format: functional;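 also: TYRO3 value obtained as one member of a kinome-wide profiling panel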
T4 sequence (Q06418 whole entry): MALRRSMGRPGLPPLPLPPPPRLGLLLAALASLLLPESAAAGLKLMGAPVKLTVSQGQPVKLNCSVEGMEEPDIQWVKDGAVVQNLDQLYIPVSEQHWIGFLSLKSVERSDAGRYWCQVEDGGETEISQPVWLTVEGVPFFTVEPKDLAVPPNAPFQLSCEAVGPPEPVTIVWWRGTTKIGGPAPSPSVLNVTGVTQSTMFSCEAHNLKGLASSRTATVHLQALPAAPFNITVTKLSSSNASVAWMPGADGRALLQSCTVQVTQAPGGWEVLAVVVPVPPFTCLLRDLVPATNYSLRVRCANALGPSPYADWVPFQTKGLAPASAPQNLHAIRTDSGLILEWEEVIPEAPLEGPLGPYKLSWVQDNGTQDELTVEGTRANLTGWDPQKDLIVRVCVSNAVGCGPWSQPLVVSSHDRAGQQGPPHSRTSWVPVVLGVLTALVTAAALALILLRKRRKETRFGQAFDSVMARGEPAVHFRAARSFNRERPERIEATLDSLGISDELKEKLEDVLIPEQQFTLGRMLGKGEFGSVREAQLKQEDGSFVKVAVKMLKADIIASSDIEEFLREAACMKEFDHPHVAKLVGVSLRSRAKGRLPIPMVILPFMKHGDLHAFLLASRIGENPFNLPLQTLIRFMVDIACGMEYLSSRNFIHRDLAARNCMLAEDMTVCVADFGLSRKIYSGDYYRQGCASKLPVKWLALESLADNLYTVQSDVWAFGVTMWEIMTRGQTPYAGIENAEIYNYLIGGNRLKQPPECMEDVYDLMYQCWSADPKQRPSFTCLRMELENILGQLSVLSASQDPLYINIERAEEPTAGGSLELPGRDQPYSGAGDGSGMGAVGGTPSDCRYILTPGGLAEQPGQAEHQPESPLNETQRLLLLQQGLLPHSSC

[27] = target: T5, Aurora kinase A (Homo sapiens, UniProt O14965); format: functional;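 also: value from the Navigating the Kinome kinase panel profiling, panel entry STK6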
T5 sequence (O14965 whole entry): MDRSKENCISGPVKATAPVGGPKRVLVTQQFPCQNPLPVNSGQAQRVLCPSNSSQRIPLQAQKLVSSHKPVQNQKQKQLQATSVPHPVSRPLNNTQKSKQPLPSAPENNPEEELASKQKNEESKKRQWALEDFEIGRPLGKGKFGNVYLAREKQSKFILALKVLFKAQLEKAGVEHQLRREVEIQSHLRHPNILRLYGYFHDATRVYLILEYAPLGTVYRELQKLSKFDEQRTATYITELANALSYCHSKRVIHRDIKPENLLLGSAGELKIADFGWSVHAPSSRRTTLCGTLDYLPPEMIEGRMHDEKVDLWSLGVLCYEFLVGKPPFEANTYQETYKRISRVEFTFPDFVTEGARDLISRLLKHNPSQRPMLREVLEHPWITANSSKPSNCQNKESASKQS

[28] = target: Platelet-derived growth factor receptor beta (Homo sapiens, UniProt P09619); format: functional;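 also: value comes from a kinome panel, with PDGFRB tested as one panel member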
[29] = target: Dual specificity tyrosine-phosphorylation-regulated kinase 1B (Homo sapiens, UniProt Q9Y463); assay: Navigating the Kinome. Panel member name: DYRK1B; format: functional
[30] = target: Cyclin-dependent kinase 19 (Homo sapiens, UniProt Q9BWU1); assay: Navigating the Kinome. Panel member name: CDC2L6; format: functional
[31] = target: Cyclin-dependent kinase 9 (Homo sapiens, UniProt P50750); format: functional;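 also: value from the CDK9 entry of a kinome-spanning kinase panel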
[32] = target: Dual specificity protein kinase CLK4 (Homo sapiens, UniProt Q9HAZ1); format: functional
Sequence of Dual specificity protein kinase CLK4 (Q9HAZ1 whole entry): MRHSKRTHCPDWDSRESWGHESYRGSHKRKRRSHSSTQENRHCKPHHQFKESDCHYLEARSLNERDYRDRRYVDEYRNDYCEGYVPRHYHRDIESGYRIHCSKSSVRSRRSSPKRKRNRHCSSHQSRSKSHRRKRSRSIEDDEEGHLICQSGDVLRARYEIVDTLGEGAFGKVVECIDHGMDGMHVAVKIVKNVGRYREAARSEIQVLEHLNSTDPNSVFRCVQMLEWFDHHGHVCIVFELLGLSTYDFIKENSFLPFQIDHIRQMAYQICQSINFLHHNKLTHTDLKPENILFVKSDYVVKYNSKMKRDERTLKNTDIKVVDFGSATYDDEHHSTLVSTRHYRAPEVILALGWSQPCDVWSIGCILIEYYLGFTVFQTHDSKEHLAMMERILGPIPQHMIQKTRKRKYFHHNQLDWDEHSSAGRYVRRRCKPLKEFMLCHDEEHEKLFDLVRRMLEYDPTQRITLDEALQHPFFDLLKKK

[33] = target: Macrophage colony-stimulating factor 1 receptor (Homo sapiens, UniProt P07333); format: functional;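 also: value comes from the Navigating the Kinome screening panel, CSF1R member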

Ki [1]: 0.158 µM (active) | Ki [2]: > 3.16 µM (inactive) | Ki [3]: > 3.16 µM (inactive) | Ki [4]: > 3.98 µM (inactive) | Ki [5]: > 3.98 µM (inactive) | Ki [6]: 2 µM (active) | Ki [7]: > 3.16 µM (inactive) | Ki [8]: > 3.16 µM (inactive) | Ki [9]: > 6.31 µM (inactive) | Ki [10]: > 2.51 µM (inactive) | Ki [11]: > 3.98 µM (inactive) | Ki [12]: 0.631 µM (active) | Ki [13]: 0.2 µM (active) | Ki [14]: > 3.98 µM (inactive) | Ki [15]: > 2 µM (inactive) | Ki [16]: > 2.51 µM (inactive)
Compound: CN(C)CC1CCn2cc(c3ccccc32)C2=C(C(=O)NC2=O)c2cn(c3ccccc23)CCO1 (centres undefined)

Ki [25]: > 100 µM (inactive) | Ki [26]: 79.4 µM (active) | Ki [27]: > 63.1 µM (inactive) | Ki [28]: > 79.4 µM (inactive) | Ki [6]: > 100 µM (inactive) | Ki [29]: 100 µM (active) | Ki [30]: > 100 µM (inactive) | Ki [31]: > 63.1 µM (inactive) | Ki [11]: 25.1 µM (active) | Ki [12]: > 50.1 µM (inactive) | Ki [32]: 1.58 µM (active) | Ki [33]: > 100 µM (inactive) | Ki [15]: > 79.4 µM (inactive)
Compound: O=C1NCc2ccc(-c3ccccc3)cc21

More lines, now with the values behind:

Compound: COc1ccc(-c2cc(C(=O)N3CC(C)CC(C)C3)c3ccccc3n2)cc1OC (centres undefined)
IC50 [17]: 1.51 µM (active)

Compound: COC(=O)CSc1nnc(-c2ccc(S(=O)(=O)NCc3ccccc3Cl)cc2)o1
IC50 [18]: > 64.6 µM (inactive) | IC50 [19]: > 64.6 µM (inactive)

Compound: CS(=O)(=O)c1ccc(N)c(SSc2cc(S(C)(=O)=O)ccc2N)c1
IC50 [20]: > 55.7 µM (not active) | IC50 [21]: 13 µM (active) | IC50 [22]: 7.08 µM (active) | IC50 [23]: 23.9 µM (inactive) | EC50 [24]: > 104 µM (inactive)

Compound: O=C(Oc1cccc(C(=S)N2CCOCC2)c1)c1ccc([N+](=O)[O-])cc1[N+](=O)[O-]
IC50 [18]: > 64.6 µM (inactive) | IC50 [19]: > 64.6 µM (inactive)
